Assay results: patent publication US20220031684A1, “PROPHYLACTIC EFFICACY OF SEROTONIN 4 RECEPTOR AGONISTS AGAINST STRESS” (THE TRUSTEES OF COLUMBIA UNIVERSITY IN THE CITY OF NEW YORK, priority 2019, published 2022)

Test system: 129S6/SvEv mice
Test: 3-shock contextual fear conditioning (CFC)
Type: in vivo
Conditions: for p value, CFC Re-exposure Average Freezing (%), Fisher's LSD: FIG. 2D
Description: This chronic CORT elevation dysregulates the hypothalamic-pituitary-adrenal axis (HPA) in a manner similar to that observed in clinical depression. The dose and duration of CORT treatment was selected based on previous studies. CORT (35 μg/ml, equivalent to about 5 mg/kg/day) dissolved in 0.45% hydroxypropyl-o-cyclodextrin (0-CD) or vehicle (VEH) (0.45% j-CD) was available ad libitum in the drinking water in opaque bottles to protect it from light. VEH- and CORT-treated water was changed every 3 days to prevent possible degradation. Contextual Fear Conditioning (CFC): A 3-shock CFC procedure was administered as previously published. Briefly, mice were placed into context A and administered 3 2-s shocks (0.75 mA) at 180 s, 240 s or 300 s following placement into context A. Mice were removed from the context 15 s following the termination of shock (at 317 s). For context retrieval, mice were placed back into context A for 300 s. Electrophysiology: Electrophysiology was conducted as previously described. Statistical Analysis: Results from data analyses are expressed as means±SEM. Alpha was set to 0.05 for all analyses. Data were analyzed using GraphPad Prism v7.0 or v8.0. For all experiments, unless otherwise noted, one- or two-way ANOVAs with repeated-measures were applied to the data as appropriate. Significant main effects and/or interactions were followed by Fisher's PLSD post hoc analysis or unpaired t-tests. Drugs: All drugs were prepared in physiological saline and all injections were administered intraperitoneally (i.p.) in volumes of 0.1 cc per […] body weight unless otherwise noted. Fluoxetine hydrochloride (Flx): Flx (BioTrend Chemicals AG, BG197, Zurich, Germany) was administered in the drinking water (18 mg/kg/day) for 3 weeks before the start of CORT. […] (R,S)-ketamine (K): (R,S)-ketamine (Ketaset III, Ketamine HCl injection, Fort Dodge Animal Health, Fort Dodge, Iowa) was administered in a single dose at 30 mg/kg of body weight 1 week before the start of CFC. […] PF-04995274: PF-04995274 (Sigma, Catalog No. 1331782-27-4, St. Louis, Mo.) was administered a single dose at 3 or 10 mg/kg of body weight 1 week before the start of CFC. PF-04995274 was dissolved in saline using an ultrasonic homogenizer (BioLogics, Model 3000, Manassas, Va.). Osmotic minipump implantation: ALZET osmotic minipumps (Model 2004, […], 28 days) were implanted subcutaneously under isoflurane anesthesia as previously described [S2]. Osmotic minipumps were rotated under the skin two to three times per week. Behavioral Assays: All experiments were approved by the Institutional Animal Care and Use Committee (IACUC) at the New York Psychiatric Institute (NYSPI). Elevated Plus Maze (EPM): Testing was performed as previously described [S3]. Briefly, the maze is a plus-cross-shaped apparatus consisting of four arms, two open and two enclosed by walls, linked by a central platform at a height of 50 cm from the floor. Mice were individually placed in the center of the maze facing an open arm and were allowed to explore the maze for 5 min. The time spent in and the number of entries into the open arms was used as an anxiety index. Videos were scored using ANY-maze behavior tracking software (Stoelting, Wood Dale, Ill.). Novelty-Suppressed Feeding: The NSF is a conflict test that elicits competing motivations: the drive to eat and the fear of venturing into the center of a brightly lit arena. The latency to feed is used as an index of anxiety-like behavior, because classical anxiolytic drugs decrease this measure. The NSF test was carried out during an 8 min period as previously described [S3]. Briefly, the testing apparatus consisted of a plastic box (50×50×20 cm), the floor of which was covered with approximately 2 cm of bedding. For 129S6/SvEv experiments, mice were food restricted for 12 h. For the C57BL/6N experiments, mice were food restricted for 24 h. […]

[1] = FIG. 3 Acute RS67333 cohort, FIG. 3B, Fisher's PLSD

## CCCCN1CCC(CCC(=O)c2cc(Cl)c(N)cc2OC)CC1.Cl [RS-67,333, 1-(4-amino-5-chloro-2-methoxyphenyl)-3-[1(n-butyl)-4-piperidinyl]-1-propanone HCl]
RS67333 (1.5 mg/kg) vs. (second group beyond the rows shown)
  p value, CFC Re-exposure Average Freezing (%), Fisher's LSD: 0.3259
RS67333 (1.5 mg/kg) vs. RS67333 (10 mg/kg)
  p value, CFC Re-exposure Average Freezing (%), Fisher's LSD: 0.8278
Saline vs. RS67333 (1.5 mg/kg)
  p value, CFC Re-exposure Average Freezing (%), Fisher's LSD: 0.0185
Saline vs. RS67333 (10 mg/kg)
  p value, CFC Re-exposure Average Freezing (%), Fisher's LSD: 0.0006
Saline vs. RS67333 (30 mg/kg)
  p value, CFC Re-exposure Average Freezing (%), Fisher's LSD: 0.2625
FIG. 2 cohort, post-hoc comparison, measurement head lies above the shown rows (block before FST)
  p, RS67333 (10 mg/kg) vs. RS67333 (30 mg/kg): 0.3050
[1]
  p, CFC Trainging Freezing (%), RS67333 (1.5 mg/kg) vs. RS67333 (10 mg/kg): 0.3858
  p, CFC Trainging Freezing (%), Saline vs. RS67333 (1.5 mg/kg): 0.0941
  p, CFC Trainging Freezing (%), Saline vs. RS67333 (10 mg/kg): 0.0076
FIG. 3 cohort, Fisher's PLSD
  p, CFC Training Freezing (min 1), RS67333 (1.5 mg/kg) vs. RS67333 (10 mg/kg): 0.9715
  p, CFC Training Freezing (min 1), Saline vs. RS67333 (1.5 mg/kg): 0.8847
  p, CFC Training Freezing (min 1), Saline vs. RS67333 (10 mg/kg): 0.9054
  p, CFC Training Freezing (min 3), RS67333 (1.5 mg/kg) vs. RS67333 (10 mg/kg): 0.8746
  p, CFC Training Freezing (min 3), Saline vs. RS67333 (1.5 mg/kg): 0.8999
  p, CFC Training Freezing (min 3), Saline vs. RS67333 (10 mg/kg): 0.9721
  p, CFC Training Freezing (min 4), RS67333 (1.5 mg/kg) vs. RS67333 (10 mg/kg): 0.7882
  p, CFC Training Freezing (min 4), Saline vs. RS67333 (1.5 mg/kg): 0.0168
  p, CFC Training Freezing (min 4), Saline vs. RS67333 (10 mg/kg): 0.0040
  p, CFC Training Freezing (min 5), RS67333 (1.5 mg/kg) vs. RS67333 (10 mg/kg): 0.0492
  p, CFC Training Freezing (min 5), Saline vs. RS67333 (1.5 mg/kg): 0.0117
  p, CFC Training Freezing (min 5), Saline vs. RS67333 (10 mg/kg): <0.0001
  p, CFC Training freezing (min 2), RS67333 (1.5 mg/kg) vs. RS67333 (10 mg/kg): 0.9854
  p, CFC Training freezing (min 2), Saline vs. RS67333 (1.5 mg/kg): 0.8966
